{"source": "patent US9228175B2", "about": "“Genes encoding a novel type of lysophophatidylcholine acyltransferases and their use to increase triacylglycerol production and/or modify fatty acid composition” (National Research Counsel of Canada, priority 2006, dated 2016)", "format_in_all_cases": "biochemical", "key": {"[1]": {"target": "T1, LCA1 (Saccharomyces cerevisiae, UniProt Q08548)", "T1 construct": "Saccharomyces cerevisiae YOR175c ORF was PCR-amplified; made in house; host or cells: S. cerevisiae YOR175c deletion strain Y02431 (lca1Δ), pYES2.1, galactose induction; microsomal fraction", "T1 sequence (Q08548 1-619)": "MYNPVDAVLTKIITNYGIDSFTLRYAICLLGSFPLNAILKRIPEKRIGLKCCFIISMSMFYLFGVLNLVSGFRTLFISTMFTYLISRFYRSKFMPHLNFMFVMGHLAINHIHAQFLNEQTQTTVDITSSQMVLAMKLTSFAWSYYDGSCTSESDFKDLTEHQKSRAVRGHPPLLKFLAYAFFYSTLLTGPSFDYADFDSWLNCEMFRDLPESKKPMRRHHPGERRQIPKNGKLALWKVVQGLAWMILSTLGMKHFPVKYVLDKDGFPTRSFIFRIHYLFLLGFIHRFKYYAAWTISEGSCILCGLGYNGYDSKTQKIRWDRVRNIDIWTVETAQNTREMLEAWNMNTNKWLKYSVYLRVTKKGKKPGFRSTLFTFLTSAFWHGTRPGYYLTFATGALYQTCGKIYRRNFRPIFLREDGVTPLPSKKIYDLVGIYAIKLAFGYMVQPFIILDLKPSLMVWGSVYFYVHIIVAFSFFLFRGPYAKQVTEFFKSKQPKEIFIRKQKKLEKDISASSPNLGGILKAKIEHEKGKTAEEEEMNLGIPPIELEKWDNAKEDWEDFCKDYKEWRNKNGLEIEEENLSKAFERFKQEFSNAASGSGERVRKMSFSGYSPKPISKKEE", "assay": "Zn^2+ / Mg^2+ effect on LPCAT activity of LCA1 (in vitro assay, microsomes of lca1Δ over-expressing LCA1)", "details": "for LPCAT activity (% control): 5.6 μM palmitoyl-LPC, 11.25 μM stearyl-CoA, 1.5 μg microsomal protein, pH 7.4, two minutes, mean±S.D.", "protocol": "Microsomal preparation: Yeast strains were first grown in 15 ml of SC-Leu-His-Ura medium containing 2% glucose. Protein expression induction was carried out as described in Invitrogen manufacturer manual for yeast expression vector pYES2.1. After 24 hours of growth in SC+2% galactose+1% raffinose induction conditions, the cells were washed, first with distilled water and then with wall-breaking buffer (50 mM Tris-HCl, 1 mM EDTA, 0.6 M sorbitol, pH 7.4, 1 mM DTT). After centrifugation at 4,000 rpm (Eppendorf Centrifuge 5145C), the cells were resuspended in 1 ml wall-breaking buffer with 10 μl yeast protease cocktail (Sigma), and shaken vigorously in the presence of acid-washed glass beads (diameter 0.5 mm). The resultant homogenate was centrifuged at 12,000 rpm for ten minutes at 4° C. The decanted supernatant was further centrifuged at 100,000×g for 90-120 minutes at 4° C. The supernatant was discarded, and the pellet was suspended in homogenization buffer containing 20% glycerol and frozen at −80° C. until use. Protein concentration was measured using Bio-Rad Protein Assay Kit for final enzyme activity calculation.\nIn Vitro Assay of LPCAT activity: LPCAT substrate specificity was determined by measuring incorporation of [^14C] lysophosphatidylcholine or [^14C] palmitoyl-CoA into phosphatidylcholine. All assays were performed at least twice. For lysophospholipid substrate specificity assessment, 400 μl HEPES buffer contained 3 μg microsomal protein, 50 μM of lysophospholipid substrates and 112.5 μM [^14C] palmitoyl-CoA (5.5 nCi/nmol). For acyl-CoA substrate selectivity analysis, 400 μl HEPES reaction buffer (pH7.4, 0.1 M) contained 3 μg microsomal protein, 50 μM acyl-CoA and 112.5 μM [^14C] […] (1.35 nCi/nmol). Reaction was allowed for 2 minutes at 30° C. with 100 rpm shaking. The reaction products were extracted with chloroform/methanol (2/1, v/v) and separated with Merck silica G60 TLC plates. Spots corresponding to different phospholipid species products were scraped off and ^14C incorporation were scintillation counted. Different concentrations of ZnCl2 were added in to reactions for Zn^2+ inhibitory effect assay.\nResults are expressed as means±S.D. The lca1Δ over-expressing LCA1 was used to assess Zn^2+ effect. The reactions contained 5.6 μM palmitoyl-LPC (1.35 nCi/nmol), 1.5 μg microsomal proteins, 0.1 M HEPES (pH 7.4), 11.25 μM stearyl-CoA and indicated concentration of ZnCl2. The reaction was stopped after two minutes by adding 2 ml of chloroform/methanol solution (2:1)."}, "[2]": {"target": "T2, AtLPCAT1 (Arabidopsis thaliana, UniProt F4IDU4)", "T2 construct": "made in house; host or cells: S. cerevisiae YOR175c deletion strain BY02431 (lca1Δ), pYES2.1 TOPO, galactose induction; microsomal protein", "T2 sequence (F4IDU4 1-462)": "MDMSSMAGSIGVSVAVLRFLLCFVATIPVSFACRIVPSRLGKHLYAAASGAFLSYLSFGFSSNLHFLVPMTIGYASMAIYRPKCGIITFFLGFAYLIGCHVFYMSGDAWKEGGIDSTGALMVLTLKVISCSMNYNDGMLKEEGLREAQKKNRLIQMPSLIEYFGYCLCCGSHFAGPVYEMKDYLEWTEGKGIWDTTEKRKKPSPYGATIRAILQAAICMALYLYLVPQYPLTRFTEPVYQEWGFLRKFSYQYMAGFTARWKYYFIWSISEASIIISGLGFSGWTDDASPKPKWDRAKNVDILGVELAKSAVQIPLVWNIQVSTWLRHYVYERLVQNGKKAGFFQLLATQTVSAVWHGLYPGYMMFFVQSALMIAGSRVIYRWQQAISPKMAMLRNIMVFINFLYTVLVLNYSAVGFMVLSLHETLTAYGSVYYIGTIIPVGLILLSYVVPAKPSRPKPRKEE", "assay": "Zn^2+ sensitivity of AtLPCAT1, in vitro LPCAT assay", "details": "increasing ZnCl2; 25 μM palmitoyl-LPC, 25 μM stearyl-CoA, 20 μg microsomal protein, pH 7.4", "protocol": "(§1) FIG. 19 is a graph depicting the inhibitory effect of Zn^2+ on AtLPCATs activity. The lca1Δ over-expressing AtLPCATs was used to asses Zn^2+ effect. The reactions contained 25 μM palmitoyl-LPC (1.35 nCi/nmol), 20 μg microsomal proteins, 0.1 M HEPES (pH 7.4), 25 μM stearyl-CoA and indicated concentration of ZnCl2.\n(§2) AtLPCAT substrate specificity was determined by counting incorporation of 14C-labeled lysophosphatidylcholine or 14C-labeled palmitoyl-CoA into phosphatidylcholine. All assays were performed at least twice. […] reaction mixture contained […] microsomal protein, […] acyl-CoA and […], pH7.4. 14C-lysophosphatidylcholine (1.4 nCi/nmol) or 14C-palmityl-CoA (5.5 nCi/nmol) was used to assess fatty-CoA or lyso-lipid substrate specificity. Reaction was allowed for ten minutes at 30° C. All radiolabel chemicals for these assays were purchased from ARC, Inc."}, "[3]": {"target": "T3, AtLPCAT2 (Arabidopsis thaliana, UniProt Q9CAN8)", "T3 construct": "made in house; host or cells: S. cerevisiae YOR175c deletion strain BY02431 (lca1Δ), pYES2.1 TOPO, galactose induction; microsomal protein", "T3 sequence (Q9CAN8 1-465)": "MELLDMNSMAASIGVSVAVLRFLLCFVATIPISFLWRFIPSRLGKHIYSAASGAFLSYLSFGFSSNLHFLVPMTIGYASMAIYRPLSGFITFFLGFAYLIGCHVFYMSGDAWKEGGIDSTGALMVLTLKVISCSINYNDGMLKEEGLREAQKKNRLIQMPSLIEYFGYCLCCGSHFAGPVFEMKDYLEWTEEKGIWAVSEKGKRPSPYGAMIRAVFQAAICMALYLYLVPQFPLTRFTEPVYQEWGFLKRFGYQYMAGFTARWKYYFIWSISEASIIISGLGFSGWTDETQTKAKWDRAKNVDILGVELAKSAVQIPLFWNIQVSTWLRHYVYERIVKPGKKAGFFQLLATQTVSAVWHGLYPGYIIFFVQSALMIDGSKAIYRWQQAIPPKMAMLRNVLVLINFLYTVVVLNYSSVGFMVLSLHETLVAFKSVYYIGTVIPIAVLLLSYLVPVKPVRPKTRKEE", "assay": "Zn^2+ sensitivity of AtLPCAT2, in vitro LPCAT assay", "details": "increasing ZnCl2; 25 μM palmitoyl-LPC, 25 μM stearyl-CoA, 20 μg microsomal protein, pH 7.4", "protocol": "as §1, §2"}}}
{"molecule": "[Cl-].[Cl-].[Zn+2]", "note": "[ZnCl2]", "values": [{"measurement": "Concentration at which the maximum increase of LPCAT activity was observed", "setting": "[1]", "value": 25, "unit": "µM"}, {"measurement": "LPCAT activity (% control)", "setting": "[1]; 5 μM ZnCl2", "value": "98 ± 5.9", "unit": "% control"}, {"measurement": "LPCAT activity (% control)", "setting": "[1]; 10 μM ZnCl2", "value": "136.8 ± 3.9", "unit": "% control"}, {"measurement": "LPCAT activity (% control)", "setting": "[1]; 25 μM ZnCl2", "value": "149.7 ± 12.0", "unit": "% control"}, {"measurement": "LPCAT activity (% control)", "setting": "[1]; 0.1 mM ZnCl2", "value": "35 ± 22.4", "unit": "% control"}, {"measurement": "LPCAT activity (% control)", "setting": "[1]; 20 mM ZnCl2", "value": "6 ± 2.0", "unit": "% control"}, {"measurement": "Effect on LPCAT activity of LCA1", "setting": "[1]; lower (10-25 μM) concentration", "value": "enhanced LPCAT activity"}, {"measurement": "Effect on LPCAT activity of LCA1", "setting": "[1]; range between 0.1 mM to 20 mM", "value": "significant reduction"}, {"measurement": "AtLPCAT1 activity with Zn^2+ added", "setting": "[2]", "value": "decreased with increasing concentration"}, {"measurement": "AtLPCAT2 activity with Zn^2+ added", "setting": "[3]", "value": "decreased with increasing concentration"}]}
